Test results: patent US9200008B2 (ASKA PHARMACEUTICAL CO., LTD., priority 2010, dated 2015)
Like-named read-outs stand apart in the source and are kept apart here.

Key:
Type in all cases: cell-based
[1] = tested on: Human prostate cancer cell lines (PC-3 cells); test: Calculation of IC50 value, cell proliferation inhibitory activity by XTT assay, PC-3 cells (Test Example 2); settings: 72 hours culture with test substance, read-out: Cell proliferation inhibitory activity (IC50 value calculated from XTT assay), concentration showing 50% inhibitory activity, human prostate cancer cell lines (PC-3)
Protocol: (§1) Human prostate cancer cell lines (PC-3 cells) and human fibrosarcoma cell lines (HT1080 cells) were seeded to 96-well microplates so as to provide a density of 1,300 cells/well and that of 3,100 cells/well, respectively. In the presence of 5% CO2 at 37° C., the PC-3 cells and the HT1080 cells were cultured for 48 hours and 24 hours, respectively. Thereafter, each one of test substances was added to each well. As a control of a medical agent, DMSO was added. After the addition, both cells were continuously cultured for 72 hours. Then, an XTT labeling reagent containing 1 mg/mL of sodium 3′-[1-(phenylaminocarbonyl)-3,4-tetrazolium]-bis(4-methoxy-6-nitro)benzenesulfonate hydrate (XTT) and an electronic coupling reagent containing 1.25 mM N-methyl dibenzopyrazine methyl sulfate (PMS) were mixed at a ratio of 50:1 to give an XTT labeling mixture. The XTT labeling mixture was added to each well in an amount of 50 μL per well, and the cells were cultured for another 4 hours. A culture solution containing a test substance was used as a blank, and the absorbencies of a culture solution containing the XTT labeling mixture at a measurement wavelength (450 nm) and a control wavelength (650 nm) were measured by a plate reader. The difference between these absorbencies was evaluated as an activity of dehydrogenase of mitochondria derived from living cells. With respect to the following model formula of sigmoid curve, the convergent solution of each variable (gain, range, base and α) that minimize the residual sum of squares of the difference between these absorbencies and regressive prediction was determined, and then IC50 (=e^α) of each test substance was calculated.
The IC50 values of the compounds represented by the formula (1) or the salts thereof on two cancer cell lines according to the method of Test Example 2 were calculated, and the results are shown in Table A.

[2] = tested on: Human prostate cancer cell lines (PC-3 cells); test: Measurement of cell death-inducing activity (Test Example 1); settings: PC-3, 48 h, 48 hours after addition, tested at 10, 1, 0.1, 0.025 and 0.00625 μmol/L, qualitative evaluation of 10 fields, read-out: Concentration showing the cell death-inducing activity (cell death-inducing rate not less than 40%)
Summary of the method: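 Compound treatment lasted 48 h at 10 to 0.00625 μmol/L (five levels, DMSO as control) on PC-3 cells pre-cultured 48 h at 37 °C, 5% CO2 after seeding at 1×10^5 cells/well. A cell death-inducing rate of 40% or more counted as active.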

[3] = tested on: human fibrosarcoma cell lines (HT1080 cells); test: Calculation of IC50 value, cell proliferation inhibitory activity by XTT assay, HT1080 cells (Test Example 2)
Protocol: as §1, with “Then, an XTT labeling reagent containing 1 mg/mL of sodium 3′-[1-(phenylaminocarbonyl)-3,4-tetrazolium]-bis(4-methoxy-6-nitro)benzenesulfonate hydrate (XTT) and an electronic coupling reagent containing 1.25 mM N-methyl dibenzopyrazine methyl sulfate (PMS) were mixed at a ratio of 50:1 to give an XTT labeling mixture.” left out

[4] = HT1080 cells, 72 hours culture with test substance, XTT assay, read-out: Cell proliferation inhibitory activity (IC50 value calculated from XTT assay), concentration showing 50% inhibitory activity, human fibrosarcoma cell lines (HT1080)

IC50 [1] | Structure (SMILES) | minimal effective concentration [2] | further results
0.43 nM | CCn1cnc2cc(NC(=O)OCc3cc(-c4ccc(C)cc4OC)nn3C)ccc21 [Example 13-90] | 0.00625 µM | 
1.64 nM | COc1cc(C)ccc1-c1cc(COC(=O)Nc2ccc3c(c2)nc2n3CCOC2)n(C)n1 [Example 13-101] | 0.00625 µM | IC50 [3, 4]: 4.19 nM
6.7 nM | COc1cc(Cl)ccc1-c1nc(C)c(NC(=O)OCc2ccc3c(c2)nc2n3CCCC2)s1 [Example 9-1, [2-(4-Chloro-2-methoxyphenyl)-4-methylthiazol-5-yl]carbamic acid 1,2,3,4-tetrahydrobenzo[4,5]imidazo[1,2-a]pyridin-7-ylmethyl ester] | 0.025 µM | IC50 [3, 4]: 15.1 nM
2.17 nM | CCn1cnc2cc(COC(=O)Nc3sc(-c4ccccc4OC)nc3C)ccc21 [Example 9-57] | 0.025 µM | 
0.56 nM | COc1cc(C)ccc1-c1nc(C)c(NC(=O)OCc2ccc3c(c2)nc2n3CCOC2)s1 [Example 9-94] | 0.00625 µM | IC50 ([3]; 72 h): 1.75 nM
6.35 nM | CCn1cc2cc(NC(=O)OCc3sc(-c4ccc(C)cc4C)nc3C)ccc2n1 [Example 13-53] | 0.1 µM | 
6.77 nM | CCn1cc2cc(COC(=O)Nc3sc(-c4ccc(C)cc4OC)nc3C)ccc2n1 [Example 9-155] | 0.025 µM | 
 | Cc1cc(/C=N/NC(=O)c2snc(-c3ccc(Cl)cc3Cl)c2N)ccc1O [Example 27-14, 4-Amino-3-(2,4-dichlorophenyl)isothiazole-5-carboxylic acid[1-(4-hydroxy-3-methylphenyl)methylidene]hydrazide] | 10 µM | 
 | CCn1nc(-c2ccc(Cl)cc2OC)cc1NC(=O)OCc1ccc2c(c1)ncn2CC [Example 9-224] | 0.00625 µM | 
 | CCc1nc(-c2ccccc2OC)sc1NC(=O)OCc1ccc2c(c1)nc1n2CCOC1 [Example 9-168] | 0.1 µM | 
 | COc1cc(Cl)ccc1-c1cc(COC(=O)Nc2ccc3c(c2)CCO3)n(C)n1 [Example 13-73] | 10 µM | 
 | CCn1nc(-c2ccc(Cl)cc2Cl)cc1NC(=O)OCc1ccc2c(c1)ncn2CC [Example 9-210] | 0.1 µM | 
 | Cc1cc(Cl)ccc1-c1nc(C(F)(F)F)c(NC(=O)OCc2ccc3c(c2)ncn3C)s1 [Example 9-186] | 1 µM | 
 | COc1ccccc1-c1nc(C)c(COC(=O)Nc2ccc3c(c2)nc2n3CCOC2)s1 [Example 13-22] | 10 µM | 
 | COc1cc(F)ccc1-c1cc(COC(=O)Nc2ccc3c(c2)nc2n3CCOC2)n(C)n1 [Example 13-97] | 0.00625 µM | 
 | Cc1ccc(-c2cc(COC(=O)Nc3ccc4c(c3)ncn4C)nn2C)c(C)c1 [Example 13-141] | 10 µM | 
 | COc1ccc(/C=N/NC(=O)c2sc(-c3cccc(F)c3)nc2C)cc1O [Example 23-72] | 1 µM | 
 | CCn1ncc2cc(COC(=O)Nc3cnc(-c4ccccc4OC)s3)ccc21 [Example 9-179] | 10 µM | 
 | CCc1ccccc1-c1nc(C)c(NC(=O)OCc2ccc3c(c2)nc2n3CCC2)s1 [Example 9-100] | 0.1 µM | 
 | CCc1nc(-c2ccc(F)cc2OC)sc1NC(=O)OCc1ccc2c(c1)nc1n2CCOC1 [Example 9-357] | 0.025 µM | 
 | CCn1c(C)nc2cc(COC(=O)Nc3sc(-c4ccc(Cl)cc4OC)nc3C)ccc21 [Example 9-86] | 0.025 µM | 
 | COc1ccccc1-c1cc(C(=O)N/N=C/c2cc(C)c(O)c(C)c2)sn1 [Example 27-8] | 0.1 µM | 
 | COc1ccc(/C=N/NC(=O)c2cc(-c3ccccc3Cl)n[nH]2)cc1O [Example 22-1, 5-(2-Chlorophenyl)-2H-pyrazole-3-carboxylic acid [1-(3-hydroxy-4-methoxyphenyl)methylidene]hydrazide] | 10 µM | 
 | CCn1nc(-c2ccc(C)cc2C)cc1COC(=O)Nc1ccc2c(c1)nc1n2CCOC1 [Example 13-104] | 0.025 µM | 
 | Cc1nc(-c2sccc2Cl)sc1COC(=O)Nc1ccc2c(c1)nc1n2CCOC1 [Example 13-61] | 10 µM | 

Structure (SMILES) | IC50 [1] | minimal effective concentration [2] | further results
CCn1nnc2cc(COC(=O)Nc3sc(-c4ccc(C)cc4OC)nc3C)ccc21 [Example 9-25] | 0.81 nM |  | IC50 ([3]; read-out: Cell proliferation inhibitory activity (IC50 value calculated from XTT assay), concentration showing 50% inhibitory activity, human fibrosarcoma cell lines (HT1080), HT1080 cells, 72 hours culture with test substance, XTT assay): 1.64 nM
